In publication PMC5378356, “Differential inhibition of activity, activation and gene expression of MMP-9 in THP-1 cells by azithromycin and minocycline versus bortezomib: A comparative study” (PLoS ONE, 2017) one finds IC50 data, which are given here for one compound.

The target in the experiment is T1, matrix metalloproteinase-9 (MMP-9, gelatinase B) (Homo sapiens, UniProt P14780).
T1 construct: gene MMP9
The experiment is described as follows: fluorogenic DQ-gelatin degradation assay with active MMP-9; also gelatin zymography with compound in the incubation buffer. Type of experiment: biochemical.

T1 sequence (P14780 107-707): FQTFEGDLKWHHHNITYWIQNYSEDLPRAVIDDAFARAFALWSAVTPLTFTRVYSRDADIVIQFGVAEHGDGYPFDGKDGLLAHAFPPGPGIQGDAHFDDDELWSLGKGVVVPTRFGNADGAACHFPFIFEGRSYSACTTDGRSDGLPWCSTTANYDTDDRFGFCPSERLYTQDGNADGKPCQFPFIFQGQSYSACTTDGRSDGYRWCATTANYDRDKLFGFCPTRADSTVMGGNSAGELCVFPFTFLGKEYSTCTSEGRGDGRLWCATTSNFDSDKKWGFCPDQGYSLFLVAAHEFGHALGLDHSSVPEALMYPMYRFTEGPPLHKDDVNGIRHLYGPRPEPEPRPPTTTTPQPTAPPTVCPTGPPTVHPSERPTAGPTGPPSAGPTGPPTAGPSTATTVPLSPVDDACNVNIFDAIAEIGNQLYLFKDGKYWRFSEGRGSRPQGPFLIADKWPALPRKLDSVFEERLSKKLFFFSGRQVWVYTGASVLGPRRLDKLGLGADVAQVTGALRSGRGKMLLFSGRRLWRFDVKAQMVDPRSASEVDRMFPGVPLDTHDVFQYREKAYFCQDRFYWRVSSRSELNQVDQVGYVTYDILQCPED

The term IC50 denotes the concentration needed to halve the response being measured. As to `CN(C)c1ccc(O)c2c1C[C@H]1C[C@H]3[C@H](N(C)C)C(O)=C(C(N)=O)C(=O)[C@@]3(O)C(O)=C1C2=O` [minocycline], the IC50 is 272 µM.
